Reference: patent publication US20250034125A1, “COMPOUNDS AND USES THEREOF” (JANSSEN PHARMACEUTICA NV, priority 2019, published 2025)

How the values were obtained:
SCD1 = target: T1, SCD1 (Homo sapiens, UniProt O00767); experiment: Growth inhibition of yeast (ole1Δ) expressing human SCD1 as the sole desaturase; format: cell-based; details: yeast strain with SCD1 plasmid, OD600 growth read at 40 h; read-out: SCD1 IC50
T1 construct: host or cells: Saccharomyces cerevisiae ole1Δ strain (W303 pdr1Δ pdr3Δ background), plasmid pRS316, TDH3 promoter
T1 sequence (O00767 1-359): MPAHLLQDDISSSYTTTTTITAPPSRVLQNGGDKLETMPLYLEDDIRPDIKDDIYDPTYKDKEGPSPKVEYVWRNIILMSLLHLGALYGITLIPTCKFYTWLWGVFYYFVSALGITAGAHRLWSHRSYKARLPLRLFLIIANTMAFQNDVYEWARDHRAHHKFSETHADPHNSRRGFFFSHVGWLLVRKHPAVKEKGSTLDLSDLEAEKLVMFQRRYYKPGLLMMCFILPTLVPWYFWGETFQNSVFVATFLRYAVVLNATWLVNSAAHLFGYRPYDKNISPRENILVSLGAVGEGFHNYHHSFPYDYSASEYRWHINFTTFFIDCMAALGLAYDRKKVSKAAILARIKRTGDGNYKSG

SCD5 = target: T2, SCD5 (Homo sapiens, UniProt Q86SK9); experiment: Growth inhibition of yeast (ole1Δ) expressing human SCD5 as the sole desaturase; format: cell-based; details: yeast strain with SCD5 plasmid, OD600 growth read at 40 h; read-out: SCD5 IC50
T2 construct: host or cells: Saccharomyces cerevisiae ole1Δ strain (W303 pdr1Δ pdr3Δ background), plasmid pRS316, TDH3 promoter
T2 sequence (Q86SK9 1-330): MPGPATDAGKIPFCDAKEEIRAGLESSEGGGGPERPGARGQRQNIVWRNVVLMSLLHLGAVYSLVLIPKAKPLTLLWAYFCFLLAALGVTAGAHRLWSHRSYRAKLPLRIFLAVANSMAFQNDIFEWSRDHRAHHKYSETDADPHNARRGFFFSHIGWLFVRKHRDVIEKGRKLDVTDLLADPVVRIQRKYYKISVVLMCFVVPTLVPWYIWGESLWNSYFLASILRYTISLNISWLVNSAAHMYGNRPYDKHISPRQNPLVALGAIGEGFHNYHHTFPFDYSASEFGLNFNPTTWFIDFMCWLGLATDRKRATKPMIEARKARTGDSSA

Row | IC50 (SCD1) [µM] | IC50 (SCD5) [µM] | SMILES
1 | > 45 | 24.7 | Cn1cc(CC(=O)N2CCC(Cc3cccc(Cl)c3)CC2)ccc1=O [Compound 4, 5-(2-(4-(3-chlorobenzyl)piperidin-1-yl)-2-oxoethyl)-1-methylpyridin-2(1H)-one]
2 | > 45 | > 45 | Cn1nc(NC(=O)N2CCC(Oc3cccc(C#N)c3Cl)CC2)ccc1=O [Compound 87, 4-(2-chloro-3-cyanophenoxy)-N-(1-methyl-6-oxo-1,6-dihydropyridazin-3-yl)piperidine-1-carboxamide]
3 | 9.77 | 4.8 | Cn1nc(NC(=O)N2CCC(Oc3ccc(C(F)(F)F)cc3)CC2)ccc1=O [Compound 76, N-(1-methyl-6-oxo-1,6-dihydropyridazin-3-yl)-4-(4-(trifluoromethyl)phenoxy) piperidine-1-carboxamide]
4 | 13.6 | 1.73 | Cn1nc(-c2noc(N3CCC(Cc4cc(F)cc(F)c4)CC3)n2)ccc1=O [Compound 122, 6-(5-(4-(3,5-difluorobenzyl)piperidin-1-yl)-1,2,4-oxadiazol-3-yl)-2-methylpyridazin-3(2H)-one]
5 | 2.7 | 1.4 | Cn1cc(-c2noc(N3CCC(Cc4ccc(F)c(F)c4)CC3)n2)ccc1=O [Compound 20, 5-(5-(4-(3,4-difluorobenzyl)piperidin-1-yl)-1,2,4-oxadiazol-3-yl)-1-methylpyridin-2(1H)-one]
6 | 6.5 | 0.92 | Cn1nc(NC(=O)N2CCC(F)(Cc3cc(F)c(F)c(Cl)c3)CC2)ccc1=O [Compound 66, 4-(3-chloro-4,5-difluorobenzyl)-4-fluoro —N-(1-methyl-6-oxo-1,6-dihydropyridazin-3-yl)piperidine-1-carboxamide]

Row | SMILES | IC50 (SCD1) [µM] | IC50 (SCD5) [µM]
7 | Cn1nc(NC(=O)N2CCC(Cc3cc(F)cc(Cl)c3)CC2)ccc1=O [Compound 55, 4-(3-chloro-5-fluorobenzyl)-N-(1-methyl-6-oxo-1,6-dihydropyridazin-3-yl)piperidine-1-carboxamide] | 0.16 | 0.02
8 | Cn1nc(NC(=O)N2CCC(COc3ccccc3Cl)CC2)ccc1=O [Compound 98, 4-((2-chlorophenoxy)methyl)-N-(1-methyl-6-oxo-1,6-dihydropyridazin-3-yl)piperidine-1-carboxamide] | 5.18 | 1.35
